pIC50: −log10 of the molar value.
Assays:
human eIF4E protein = target: T1, human eIF4E protein (Homo sapiens, UniProt P06730); assay: Biochemical competitive binding assay (TR-FRET competition, EDA-m7GDP-ATTO-647N probe); conditions: read-out: hEIF4E TR-FRET IC50
T1 construct: purchased Novus NBP-45314
Experimental: The potencies of compounds binding to human eIF4E protein were measured using a 384-well time-resolved fluorescence resonance energy transfer (TR-FRET) competition assay. The assay was performed in assay buffer containing 50 mM HTEPES pH 7.5, 100 mM KCl, 0.02% Tween-20, and 0.1 mg/mL bovine serum albumin (BSA). The reaction volume was 10 μL and each reaction contained 4 nM recombinant 6×HIS-tagged human EIF4E protein (Novus, NBP-45314), 5 nM EDA-m7GDP-ATTO-647N (Jena Bioscience, NU-827-647N), 2.5 nM Europium conjugated Anti-6×HIS antibody (PerkinElmer, AD0402) and varying concentrations of compound. The final DMSO concentration was […].
Compounds were prepared using 11-point, 4-fold serial dilutions in DMSO and 100 nL of diluted compounds were transferred to 384-well assay-ready plates. Recombinant human EIF4E protein at 2× final concentration (8 nM) was pre-incubated with Eu-anti-6×HIS antibody at 2× final concentration (5 nM) for 5 minutes, then 5 μL of the protein solution was added to assay-ready plates. The protein/compound mix was incubated for 15 minutes, after which 5 μL of a solution containing EDA-m7GDP-ATTO-647N probe at 2× final concentration (10 nM) was added. After a subsequent 15-minute incubation, time-resolved fluorescence of assay plates was measured using a Clariostar Plus microplate reader (BMG Labtech) and TR-FRET values were calculated by taking a ratio of the 665 to 620 wavelength signals. After normalization to the average of DMSO control and maximum inhibition control wells, concentration-response data were plotted and standard 4-parameter curve fitting (PEI Signals) was utilized to determine IC50 values.

[1] = test system: COLO 205 colorectal tumor cells; assay: Tumor cell viability inhibition assay (CellTiter-Glo 2.0, 72 hours); assay type: cell-based; conditions: COLO 205 cell viability
Experimental: The effect of compound treatment on COLO 205 tumor cell viability was assessed using cellular ATP quantification methods (Promega CellTiter-Glo® 2.0, G9241), as follows. Test compounds were prepared using 11-point, 4-fold serial dilutions in DMSO and 100 nL of diluted compounds were transferred to 384-well assay-ready plates. COLO 205 (ATCC, CCL-222) colorectal tumor cells were seeded to assay-ready plates in RPMI-1640 medium supplemented with 10% FBS at 1500 cells in a volume of 33.5 microliters per well. After 72 hours of compound treatment, cellular ATP was assessed by CellTiter-Glo® 2.0 Cell Viability Assay method, according to the manufacturer's instructions. Luminescence was measured using a Clariostar Plus microplate reader (BMG Labtech) or equivalent. After normalization to the average of DMSO control and maximum inhibition control wells, concentration-response data were plotted and standard 4-parameter curve fitting (PEI Signals) was utilized to determine IC50

T1 sequence (P06730 whole entry): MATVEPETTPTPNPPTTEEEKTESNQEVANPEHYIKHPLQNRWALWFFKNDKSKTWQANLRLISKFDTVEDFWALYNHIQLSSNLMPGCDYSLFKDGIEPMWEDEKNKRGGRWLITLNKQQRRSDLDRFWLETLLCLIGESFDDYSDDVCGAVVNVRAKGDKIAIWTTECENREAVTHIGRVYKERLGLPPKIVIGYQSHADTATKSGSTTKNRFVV

Compound | pIC50 (human eIF4E protein) | pIC50 ([1]; Homo sapiens, COLO 205, 72 h) | pIC50 [1]
Cc1cc(-c2cc(Cl)ccc2OCCn2c(C)nc3c(c2=O)C[C@@H](N2C[C@@H]4CC(F)(F)C[C@@H]4C2)CC3)c2scc(C(=O)NS(C)(=O)=O)c2n1 (relative stereo) [Compound 369] | > 7.00 | > 5.30 | 
Cc1cc(-c2cc(Cl)ccc2OCCn2c(C)nc3c(c2=O)C[C@@H](N2CCC[C@@H](C(F)F)C2)CC3)c2scc(C(=O)O)c2n1 (single isomer, unassigned) [Compound 100] | > 7.00 | > 5.30 | 
Cc1cc(-c2cc(Cl)ccc2OCCn2c(C)nc3c(c2=O)C[C@@H](N2CCC[C@H](C(F)F)C2)CC3)c2scc(C(=O)O)c2n1 (single isomer, unassigned) [Compound 101] | > 7.00 | > 5.30 | 
Cc1cc(-c2cc(Cl)ccc2OCCn2c(C)nc3c(c2=O)CC(N2CCC(OC(F)(F)F)CC2)CC3)c2scc(C(=O)NS(C)(=O)=O)c2n1 (single isomer, unassigned) [Compound 104] | > 7.00 | > 5.30 | 
Cc1cc(-c2cc(Cl)ccc2OCCn2c(C)nc3c(c2=O)CC(N2CCC(OC(F)(F)F)CC2)CC3)c2scc(C(=O)NS(C)(=O)=O)c2n1 (single isomer, unassigned) [Compound 105] | > 7.00 |  | > 5.30
Cc1cc(-c2cc(Cl)ccc2OCCn2c(C)nc3c(c2=O)C[C@@H](N2CCC(CC(F)(F)F)CC2)CC3)c2scc(C(=O)O)c2n1 (single isomer, unassigned) [Compound 106] | > 7.00 | > 5.30 | 
Cc1cc(-c2cc(Cl)ccc2OCCn2c(C)nc3c(c2=O)C[C@H](N2CCC(CC(F)(F)F)CC2)CC3)c2scc(C(=O)O)c2n1 (single isomer, unassigned) [Compound 107] | > 7.00 | > 5.30 | 
Cc1cc(-c2cc(Cl)ccc2OCCn2c(C)nc3c(c2=O)C[C@H](N2CCC(n4cc(Cl)cn4)CC2)CC3)c2scc(C(=O)O)c2n1 (single isomer, unassigned) [Compound 108] | > 7.00 | > 5.30 | 
Cc1cc(-c2cc(Cl)ccc2OCCn2c(C)nc3c(c2=O)C[C@@H](N2CCC(n4cc(Cl)cn4)CC2)CC3)c2scc(C(=O)O)c2n1 (single isomer, unassigned) [Compound 109] | > 7.00 | > 5.30 | 
Cc1cc(-c2cc(Cl)ccc2OCCn2c(C)nc3c(c2=O)C[C@@H](N2CCC(N4CC(F)(F)C4)CC2)CC3)c2scc(C(=O)O)c2n1 (single isomer, unassigned) [Compound 110] | > 7.00 | 4.70 to 5.30 | 
Cc1cc(-c2cc(Cl)ccc2OCCn2c(C)nc3c(c2=O)C[C@H](N2CCC(N4CC(F)(F)C4)CC2)CC3)c2scc(C(=O)O)c2n1 (single isomer, unassigned) [Compound 111] | > 7.00 | > 5.30 | 
Cc1cc(-c2cc(Cl)ccc2OCCn2c(C)nc3c(c2=O)C[C@@H](N2CC[C@H](C(F)F)C2)CC3)c2scc(C(=O)O)c2n1 (single isomer, unassigned) [Compound 113] | > 7.00 | > 5.30 | 
Cc1cc(-c2cc(Cl)ccc2OCCn2c(C)nc3c(c2=O)C[C@H](N2CCC[C@@H](C(F)F)C2)CC3)c2scc(C(=O)O)c2n1 (single isomer, unassigned) [Compound 116] | > 7.00 | > 5.30 | 
Cc1cc(-c2cc(Cl)ccc2OCCn2c(C)nc3c(c2=O)C[C@H](N2CCC[C@H](C(F)F)C2)CC3)c2scc(C(=O)O)c2n1 (single isomer, unassigned) [Compound 117] | > 7.00 | > 5.30 | 
Cc1cc(-c2cc(Cl)ccc2OCCn2c(C)nc3c(c2=O)C[C@@H](N2CC[C@@H](C(F)F)C2)CC3)c2scc(C(=O)O)c2n1 (single isomer, unassigned) [Compound 120] | > 7.00 | > 5.30 | 
Cc1cc(-c2cc(Cl)ccc2OCCn2c(C)nc3c(c2=O)C[C@H](N2CC[C@@H](C(F)F)C2)CC3)c2scc(C(=O)O)c2n1 (single isomer, unassigned) [Compound 121] | > 7.00 | > 5.30 | 
Cc1cc(-c2cc(Cl)ccc2OCCn2c(C)nc3c(c2=O)C[C@H](N2CC[C@H](C(F)F)C2)CC3)c2scc(C(=O)O)c2n1 (single isomer, unassigned) [Compound 122] | > 7.00 | > 5.30 | 
Cc1cc(-c2cc(Cl)ccc2OCCn2c(C)nc3c(c2=O)C[C@@H](N2CC4(CCC(F)(F)CC4)C2)CC3)c2scc(C(=O)O)c2n1 (single isomer, unassigned) [Compound 128] | > 7.00 | > 5.30 | 
Cc1cc(-c2cc(Cl)ccc2OCCn2c(C)nc3c(c2=O)C[C@H](N2CC4(CCC(F)(F)CC4)C2)CC3)c2scc(C(=O)O)c2n1 (single isomer, unassigned) [Compound 131] | > 7.00 | > 5.30 | 
Cc1cc(-c2cc(Cl)ccc2OCCn2c(C)nc3c(c2=O)CC(N2CCC(OC(F)(F)F)CC2)CC3)c2scc(C(=O)O)c2n1 (single isomer, unassigned) [Compound 135] | > 7.00 | > 5.30 | 
Cc1cc(-c2cc(Cl)ccc2OCCn2c(C)nc3c(c2=O)C[C@H](N2CCC[C@]4(C2)CC4(F)F)CC3)c2scc(C(=O)O)c2n1 (single isomer, unassigned) [Compound 137] | > 7.00 | > 5.30 | 
Cc1cc(-c2cc(Cl)ccc2OCCn2c(C)nc3c(c2=O)C[C@@H](N(C)[C@H]2CC[C@@](C)(O)C2)CC3)c2scc(C(=O)O)c2n1 (single isomer, unassigned) [Compound 184] | > 7.00 | < 4.70 | 
Cc1cc(-c2cc(Cl)ccc2OCCn2c(C)nc3c(c2=O)C[C@@H](N(C)C[C@H]2C[C@](C)(O)C2)CC3)c2scc(C(=O)O)c2n1 (single isomer, unassigned) [Compound 211] | > 7.00 | < 4.70 | 
COc1cc(CN(C)C2CCc3nc(C)n(CCOc4ccc(Cl)cc4-c4cc(C)nc5c(C(=O)NS(C)(=O)=O)csc45)c(=O)c3C2)ccn1 (single isomer, unassigned) [Compound 220] | > 7.00 |  | > 5.30
Cc1cc(-c2cc(Cl)ccc2OCCn2c(C)nc3c(c2=O)C[C@@H](N(C)[C@H]2CC[C@@](C)(O)CC2)CC3)c2scc(C(=O)O)c2n1 (single isomer, unassigned) [Compound 225] | > 7.00 | < 4.70 | 
Cc1cc(-c2cc(Cl)ccc2OCCn2c(C)nc3c(c2=O)C[C@@H](N(C)[C@H]2CC[C@](C)(O)CC2)CC3)c2scc(C(=O)O)c2n1 (single isomer, unassigned) [Compound 226] | > 7.00 | < 4.70 | 
Cc1cc(-c2ccc(Cl)cc2OCCn2c(C)nc3c(c2=O)C[C@@H](N(C)[C@H]2C[C@@](C)(O)C2)CC3)c2scc(C(=O)O)c2n1 (single isomer, unassigned) [Compound 228] | > 7.00 | < 4.70 | 
Cc1cc(-c2cc(Cl)c(=O)[nH]c2OCCn2c(C)nc3c(c2=O)CC(N(C)C2CC2)CC3)c2scc(C(=O)O)c2n1 (single isomer, unassigned) [Compound 233] | 5.30 to 6.30 | < 4.70 | 
Cc1cc(-c2cc(Cl)c(=O)[nH]c2OCCn2c(C)nc3c(c2=O)CC(N(C)C2CC2)CC3)c2scc(C(=O)O)c2n1 (single isomer, unassigned) [Compound 234] | 5.30 to 6.30 |  | < 4.70
Cc1cc(-c2cc(Cl)ccc2OCCn2c(C)nc3c(c2=O)CC(N(C)Cc2ccc(=O)[nH]c2)CC3)c2scc(C(=O)O)c2n1 (single isomer, unassigned) [Compound 236] | > 7.00 |  | < 4.70

Reference: patent publication US20240246918A1, “COMPOUNDS AND COMPOSITIONS AS EIF4E INHIBITORS AND THE USES THEREOF” (Ribometrix, Inc., priority 2022, published 2024)
